± gives the expanded uncertainty stated by the source.
Experiment: an = ratio of the nth substance listed
Conditions: 101 kPa, Liquid; for mass density: Vibrating tube method; for viscosity: rotating cylinders

C[N+](C)(C)CCO.[Cl-] [choline chloride] + OCC(O)CO
Conditions | mass density, a2 = 2 [kg/m3] | mass density, a2 = 4 [kg/m3] | viscosity, a2 = 2 [mPa·s] | viscosity, a2 = 4 [mPa·s]
293.15 K | 1194 ± 5 | 1217 ± 5 | 514.6 ± 41 | 578.2 ± 48
298.15 K | 1191 ± 5 | 1214 ± 5 | 365.7 ± 25 | 400.3 ± 28
303.15 K | 1188 ± 5 | 1211 ± 5 | 265.7 ± 15 | 283.4 ± 17
308.15 K | 1185 ± 5 | 1208 ± 5 | 197 ± 9.3 | 205.1 ± 9.9
313.15 K | 1183 ± 5 | 1205 ± 5 | 148.9 ± 5.6 | 151.7 ± 5.8
318.15 K | 1180 ± 5 | 1202 ± 5 | 114.7 ± 3.4 | 113 ± 3.3
323.15 K | 1177 ± 5 | 1200 ± 5 | 89.81 ± 2 | 87.96 ± 1.9

C[N+](C)(C)C.[Cl-] [tetramethylammonium chloride] + OCC(O)CO
Conditions | mass density, a2 = 2 [kg/m3] | mass density, a2 = 4 [kg/m3] | viscosity, a2 = 2 [mPa·s] | viscosity, a2 = 4 [mPa·s]
293.15 K | 1158 ± 5 | 1180 ± 5 | 581.8 ± 48 | 557.5 ± 46
298.15 K | 1155 ± 5 | 1177 ± 5 | 406.9 ± 29 | 384.7 ± 27
303.15 K | 1152 ± 5 | 1174 ± 5 | 290.5 ± 17 | 272 ± 16
308.15 K | 1149 ± 5 | 1171 ± 5 | 212.4 ± 10 | 197 ± 9.3
313.15 K | 1147 ± 5 | 1168 ± 5 | 158.5 ± 6.3 | 145.8 ± 5.4
318.15 K | 1144 ± 5 | 1166 ± 5 | 120.7 ± 3.7 | 110.2 ± 3.1
323.15 K | 1141 ± 5 | 1163 ± 5 | 93.57 ± 2.1 | 84.8 ± 1.7

From the NIST ThermoML archive (doi:10.1021/acs.jced.5b00717)
